Reference: patent US11337982B2, “Combined treatment with a TLR7 agonist and an HBV capsid assembly inhibitor” (Hoffmann-La Roche Inc., priority 2016, dated 2022)
pEC50: −log10 of the molar value.

Columns and labels:
human TLR7 = molecular target: T1, human TLR7 (Homo sapiens, UniProt Q9NYK1); assay: HEK293-Blue-hTLR-7 cells assay (SEAP reporter); assay type: cell-based; settings: active moiety; read-out: potency to active TLR7 in HEK293-hTLR7 assay
T1 sequence (Q9NYK1 27-1049): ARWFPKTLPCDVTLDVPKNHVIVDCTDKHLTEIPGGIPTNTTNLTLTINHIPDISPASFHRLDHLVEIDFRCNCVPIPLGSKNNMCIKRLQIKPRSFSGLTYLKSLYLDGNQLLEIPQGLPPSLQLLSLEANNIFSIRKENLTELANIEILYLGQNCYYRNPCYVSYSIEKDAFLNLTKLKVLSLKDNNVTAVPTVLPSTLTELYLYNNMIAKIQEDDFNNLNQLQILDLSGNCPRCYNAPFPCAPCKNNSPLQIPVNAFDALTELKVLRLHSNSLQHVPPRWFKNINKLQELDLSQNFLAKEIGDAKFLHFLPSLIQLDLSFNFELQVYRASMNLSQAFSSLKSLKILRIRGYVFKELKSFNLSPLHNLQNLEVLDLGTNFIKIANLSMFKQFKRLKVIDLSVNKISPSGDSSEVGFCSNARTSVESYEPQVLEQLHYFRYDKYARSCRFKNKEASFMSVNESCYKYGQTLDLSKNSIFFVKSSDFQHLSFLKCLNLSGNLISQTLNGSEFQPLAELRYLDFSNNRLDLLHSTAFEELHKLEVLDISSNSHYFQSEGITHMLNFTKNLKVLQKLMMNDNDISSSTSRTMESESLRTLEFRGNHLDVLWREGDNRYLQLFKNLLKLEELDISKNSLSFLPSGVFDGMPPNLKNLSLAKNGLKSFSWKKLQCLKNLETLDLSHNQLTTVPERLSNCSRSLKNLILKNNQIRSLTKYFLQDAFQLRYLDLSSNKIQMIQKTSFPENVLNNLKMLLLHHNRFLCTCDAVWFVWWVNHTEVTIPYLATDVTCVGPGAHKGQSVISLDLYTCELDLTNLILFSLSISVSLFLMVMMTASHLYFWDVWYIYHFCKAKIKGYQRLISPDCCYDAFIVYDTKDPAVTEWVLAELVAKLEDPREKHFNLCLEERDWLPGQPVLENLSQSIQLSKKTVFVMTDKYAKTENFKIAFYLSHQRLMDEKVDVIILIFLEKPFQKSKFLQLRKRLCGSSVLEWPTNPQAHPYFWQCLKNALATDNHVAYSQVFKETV
Source text: HEK293-Blue-hTLR-7 Cells Assay:
A stable HEK293-Blue-hTLR-7 cell line was purchased from InvivoGen (Cat.#: hkb-htlr7, San Diego, Calif., USA). These cells were designed for studying the stimulation of human TLR7 by monitoring the activation of NF-κB. A reporter gene of secreted embryonic alkaline phosphatase (SEAP) was placed under the control of the IFN-β[…]minimal promoter fused to five NF-κB and AP-1-binding sites. SEAP was induced by the activation of NF-κB and AP-1 upon stimulating HEK-Blue hTLR7 cells with TLR7 ligands. SEAP activity in cell culture supernatant was determined using QUANTI-Blue™ kit (Cat.#: rep-qb1, Invivogen, San Diego, Calif., USA) at a wavelength of 640 nm. Such reporter assays have been widely used for evaluation of TLR7 agonism (Tsuneyasu Kaisho and Takashi Tanaka, Trends in Immunology, Volume 29, Issue 7, July 2008, […]; Hiroaki Hemmi et al, Nature Immunology 3, 196-200 (2002).
Specifically, HEK293-Blue-hTLR7 cells were incubated at a density of 250,000˜450,000 cells/mL in a volume of 180 μL in a 96-well plate in Dulbecco's Modified Eagle's medium (DMEM) containing 4.5 g/L glucose, 50 U/mL penicillin, […], […], 2 mM L-glutamine, 10% (v/v) heat-inactivated fetal bovine serum for 24 h. The cells were then incubated with 20 μL of test compound in a serial dilution at 37° C. in a CO2 incubator for 20 hours. Then 20 μL of the supernatant from each well was incubated with 180 μL Quanti-blue substrate solution at 37° C. for 2 hours and the absorbance was measured at 620˜655 nm using a spectrophotometer.

HBV = HBV infected transgenic mouse or humanized mouse models; cited from earlier work
[1] = Conversion of prodrug into active moiety
AAV-HBV = AAV-HBV mouse model, serum HBV biomarkers; assay type: in vivo; settings: Compound 5 20 mg/kg QD, p.o., after 42 days of treatment
Source text: 4-week old male C57BL/6 mice, specific pathogen free, were purchased from Shanghai Laboratory Animal Center of Chinese Academy of Sciences (SLAC) and housed in an animal care facility in individually ventilated cages under controlled temperature and light conditions following the Institutional Animal Care guidelines. AAV-HBV virus was purchased from Beijing FivePlus Molecular Medicine Institute (Beijing, China). This recombinant virus carries 1.3 copies of the HBV genome, which was packaged in AAV serotype 8 (AAV8) capsids. C57BL/6 mice were injected with 200 μL of recombinant virus, diluted in saline buffer, through tail vein injection. After 3-4 weeks, animals were bled to monitor HBV genomic DNA and surface antigen (HBsAg) in serum, and then were randomly grouped according to these HBV biomarkers.
Serum HBsAg was measured using CLIA kits (Autobio Diagnostics Co., Ltd, Zhengzhou, China) according to the manufacturer's instructions. The lower limit of detection (LLOQ) for HBsAg was 0.05 IU/mL. 500-fold dilution of serum was used to obtain values within the linear range of standard curves. Serum HBV DNA was extracted using a MagNA Pure 96 DNA and Viral NA Small Volume Kit (Roche) following the manufacturer's instructions. The DNA samples were analyzed by real-time quantitative PCR (qPCR) using a HBV-specific primer and probe set for specific amplification and detection of a 128 bp HBV genome region from the nucleotide 2969 to 3096. The sequences of the primers and probe are shown as follows: […]
Anti-HBs antibody was examined in mouse serum using the anti-HBs CLIA kit (Antobio, Zhengzhou, China) according to the manufacturer's instruction with modification. ˜15 μL of the diluted (1:3) mouse serum samples were thawed at room temperature for 10 mins. 6 μL of sample was further diluted in 30 μL of PBS to make the final dilution 1:18 for the antibody test. Standard curve were prepared with monoclonal mouse antibody Anti-Hepatitis B Virus Surface Antigen (Ad/Ay) antibody [S35] (Abcam ab20402) in diluted Naive mouse serum (1:18 dilution in PBS). 1 μL of 1 mg/ml anti-HBs antibody was added into 500 μL of diluted mouse serum to make standard 1 as final concentration 2000 ng/ml. 50 μL of standard 1 then was added into 150 μL of diluted mouse serum to make standard 2 (1:4 dilution). 7 points standards were required for the test. The final concentration of standard 7 was (0.488 ng/ml). Blank serum was used as background control. 25 μL of diluted serum sample/standards/Blank was transferred into 96-well plate. Samples were incubated at room temperature for 1 hour followed by 3 times washing with 300 μL of PBST. 0.5 mg/ml of Goat anti-mouse IgG Biotinylated (Mabtech 3825-6-250) was diluted into PBS to final concentration 1 μg/ml (1:500 dilution). […] anti-mouse IgG Bio was added into plate, incubated at room temperature for 1 hour followed by 3 times washing with 300 μL of PBST. Streptavidin-HRP (Mabtech 3310-9) was diluted into PBS (1:250). 50 μL of diluted Streptavidin-HRP was incubated at room temperature for 1 hour followed by 3 times washing with 300 μL of PBST. Substrate A and substrate B (AntuBio) were mixed. 50 μL of mixture were added into plated and incubated for 10 mins before subjected to luminescence reading with Envision microplate reader. The lower limit of detection for anti HBsAb was 36 ng/mL. The anti HBsAb results were calculated from Luminescence raw data fitting on the anti HBsAb standard curve by SoftMax Pro (v5.4.1) software.
In Group 01, animals were treated with Vehicle every other day (QOD) for 42 days and served as the placebo control. In Group 02, Compound 4 was dosed once weekly (QW) at 10 mg/kg for 42 days. Compound 5 was dosed once daily (QD) at 20 mg/kg for 42 days alone in Group 03, or in combination with 10 mg/kg of Compound 4 QW in Group 04. All the test articles were administered by oral gavage (PO) with a total dose volume of 10 mL/kg. The 42-day treatment was followed by a 42-day off-treatment period. […]

[2] = Example 6, Compound 3 1 mg/kg QOW
[3] = Example 5, Compound 4 10 mg/kg QW

Structure (SMILES): CC[S@](=N)(=O)c1nc(N)c2[nH]c(=O)n(Cc3ccc(Cl)cc3)c2n1 (single isomer, unassigned) [Compound 1e-A]
- pEC50 (human TLR7): 7.15

Structure (SMILES): COC(=O)C1=C(C)NC(c2ncc(F)cc2F)=N[C@H]1c1ccc(F)cc1Cl [Bay 41-4109]
- in vivo efficacy, HBV DNA (HBV): in vivo efficacy with HBV DNA reduction

Structure (SMILES): CCCN(C)C(=O)n1c(=O)n(Cc2ccc(Cl)cc2)c2nc([S@@](=N)(=O)CC)nc(N)c21 [Compound 1, 6-Amino-9-[(4-chlorophenyl)methyl]-2-[S(S)-ethylsulfonimidoyl]-N-methyl-8-oxo-N-propyl-purine-7-carboxamide]
- conversion of prodrug into the active moiety [1]: efficiently converted

Structure (SMILES): CC[S@@](=N)(=O)c1nc(N)c2[nH]c(=O)n(Cc3ccc(Cl)cc3)c2n1 [Compound 1e-B]
- pEC50 (human TLR7): 7.07

Structure (SMILES): CCCN(C)C(=O)n1c(=O)n(Cc2ccc(Cl)cc2)c2nc([S@](=N)(=O)CC)nc(N)c21 [Compound 2, 6-amino-9-[(4-chlorophenyl)methyl]-2-[S(R)-ethylsulfonimidoyl]-N-methyl-8-oxo-N-propyl-purine-7-carboxamide]
- conversion of prodrug into the active moiety [1]: efficiently converted

Structure (SMILES): CCN(C)C(=O)n1c(=O)n(Cc2ccc(Cl)cc2)c2nc([S@@](=N)(=O)CC)nc(N)c21 [Compound 3, 6-Amino-9-[(4-chlorophenyl)methyl]-N-ethyl-2-[S(S)-(ethylsulfonimidoyl)]-N-methyl-8-oxo-purine-7-carboxamide]
- HBV DNA reduction (AAV-HBV; [2]): significant reduction
- HBsAg reduction (AAV-HBV; [2]): significant reduction
- conversion of prodrug into the active moiety [1]: efficiently converted

Structure (SMILES): CCCN(C)C(=O)n1c(=O)n(Cc2ccc(C)cc2)c2nc([S@](=N)(=O)CC)nc(N)c21 [Compound 4, 6-Amino-2-[S(R)-(ethylsulfonimidoyl)]-N-methyl-8-oxo-N-propyl-9-(p-tolylmethyl)purine-7-carboxamide]
- HBV DNA reduction (AAV-HBV; [3]): significant reduction
- HBsAg reduction (AAV-HBV; [3]): significant reduction
- conversion of prodrug into the active moiety [1]: efficiently converted

Structure (SMILES): CC[S@@](=N)(=O)c1nc(N)c2[nH]c(=O)n(Cc3ccc(C)cc3)c2n1 [Compound 4f-A, 6-amino-2-(S(R)-ethylsulfonimidoyl)-9-(p-tolylmethyl)-7H-purin-8-one]
- pEC50 (human TLR7): 6.96

Structure (SMILES): CCOC(=O)C1=C(CN2CCN3C(=O)N(CC(C)(C)C(=O)O)C[C@@H]3C2)NC(c2nccs2)=N[C@H]1c1cccc(F)c1C [Compound 5, 3-[(8aS)-7-[[(4S)-5-ethoxycarbonyl-4-(3-fluoro-2-methyl-phenyl)-2-thiazol-2-yl-1,4-dihydropyrimidin-6-yl]methyl]-3-oxo-5,6,8,8a-tetrahydro-1H-imidazo[1,5-a]pyrazin-2-yl]-2,2-dimethyl-propanoic acid]
- HBV DNA reduction (AAV-HBV; [3]): significant reduction
- HBsAg reduction (AAV-HBV; [3]): significant reduction
- HBV DNA reduction (AAV-HBV; [2]): significant reduction
- HBsAg reduction (AAV-HBV; [2]): significant reduction
